Test results from patent US8883793B2, “Tubulin inhibitors and methods of using the same” (Development Center for Biotechnology, priority 2010, dated 2014).

Assays:
biotinylated tubulin = experiment: Colchicine competitive-binding assay; conditions: at 10 μM concentration, 3H-colchicine; for binding rate (%) (colchicine competitive-binding): left column pair of Table 7; for Inhibition rate (%) (colchicine competitive-binding): right column pair of Table 7
Description: The colchicine competitive-binding assay was done by using the Colchicine Site competitive Assay Kit (Cytoskeleton, Inc.), streptavidin-coated yttrium SPA beads(GE Healthcare, Inc.), and ^3H-colchicine(PerkinElmer, Inc.). Briefly, the binding mixture includes 1 μL^3H-labeled ligand (specific activity […]), and 1 μg biotinylated tubulin and 88 μg SPA beads in 200 μL assay buffer. The test compound and ^3H-labeled ligand were added before tubulin. After incubation at 37° C. for 2 hours, the SPA beads were allowed to settle down for 24 hours at room temperature, and scintillation counting was done on the TopCount Microplate Scintillation Counter.

KB cell = experiment: MTS assay, growth inhibition of KB cells; assay type: cell-based; conditions: Homo sapiens, at 10 μM concentration, incubated for 72 h, read-out: Inhibition rate (%) (growth inhibition rate of MTS assay)
Outline: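 KB cells were allowed 24 h to attach before a 72 h exposure to compound at 10 μM. Viability was measured by MTS/PMS reduction, with absorbance read at 490 nm after 3 h. Values are reported as percent growth inhibition.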

porcine brain tubulin = experiment: Tubulin polymerization assay; assay type: biochemical; conditions: at 10 μM concentration
Description: In vitro tubulin polymerization assay was performed by using the Tubulin Polymerization Assay Kit (Cytoskeleton, Inc., Denver, Colo.) in a 96-well format, which used the polymerization of porcine brain tubulin in vitro in the presence of varying concentrations of the test compounds. Fluorescence measurements were obtained at 1-minute intervals over a 31-minute period. Fluorescent measurements were performed using excitation at 365 nm, and emission was measured at 440 nm using a Packard Fusion Alpha Microplate Analyzer. Data were analyzed as relative fluorescent units by GraphPad Prism 5 Demo.

H1975 = experiment: MTS assay, H1975; assay type: cell-based; conditions: Homo sapiens, NCI-H1975, 72 h, read-out: IC50 from MTS assay
Description: (§1) MTS assay was performed in determining the growth inhibition of cancer cells. MTS ((3-(4,5-dimethylthiazol-2-yl)-5-(3-carboxymethoxyphenyl)-2-(4-sulfophenyl)-2H-tetrazolium)), in the presence of phenazine methosulfate (PMS) and reductases, produces a formazan product that has an absorbance maximum at 490-500 nm. MTS assays (and closely related MTT assay) are commonly used to measure cell viabilities or survivals.
(§2) Briefly, KB/Hela, NCI-H460, A375, Colo205, HCT-116, U937, MCF-7, MDA-MB-231, A549, H1975 cells were seeded into 96-well plate at 4000, 4000, 2000, 2000, 2000 cells/well. After 24 h for attachment, test compound was added into each well and incubated for 72 h. A total of 20 μl of MTS reaction reagent containing the MTS (Promega, Madison, Wis.) and PMS in a ratio of 20:1 was added into each well to react with dehydrogenase enzyme in survival cells. After 3 h, the absorbance at 490 nm was monitored using Emax precision microplate reader (Molecular Devices, Sunnyvale, Calif.).

A549 = experiment: MTS assay, A549; assay type: cell-based; conditions: Homo sapiens, 72 h, read-out: IC50 from MTS assay
Description: as §1, §2

MDA-MB-231 = experiment: MTS assay, MDA-MB-231; assay type: cell-based; conditions: Homo sapiens, 72 h, read-out: IC50 from MTS assay
Description: as §1, §2

A375 = experiment: MTS assay, A375; assay type: cell-based; conditions: Homo sapiens, A-375, 72 h, read-out: IC50 from MTS assay
Description: as §1, §2

U937 = experiment: MTS assay, U937; assay type: cell-based; conditions: Homo sapiens, U-937, 72 h, read-out: IC50 from MTS assay
Description: as §1, §2

Colo205 = experiment: MTS assay, Colo205; assay type: cell-based; conditions: Homo sapiens, COLO 205, 72 h, read-out: IC50 from MTS assay
Description: as §1, §2

SMILES	inhibition at 10 µM (KB cell) [%]	Inhibition rate (%) of tubulin polymerization (porcine brain tubulin) [%]	Inhibition rate (%) (colchicine competitive-binding) (biotinylated tubulin)	also measured
COc1ccc(Sc2cnc(NC(=O)CCc3ccccc3)s2)cc1 [Compound 69, N-[5-(4-Methoxy-phenylsulfanyl)-thiazol-2-yl]-3-phenyl-propionamide]	87.6	50.5		binding rate (%) (colchicine competitive-binding) (biotinylated tubulin): 85.2%
COc1ccc(Sc2cnc(NC(=O)CCc3cccnc3)s2)cc1 [Compound 70, N-[5-(4-Methoxy-phenylsulfanyl)-thiazol-2-yl]-3-pyridin-3-yl-propionamide]	78.5	59.6		IC50 (H1975): 141 nM; IC50 (A549): 58 nM; IC50 (MDA-MB-231): 182 nM; IC50 (A375): 34.6 nM; IC50 (U937): 23.2 nM; binding rate (%) (colchicine competitive-binding) (biotinylated tubulin): 92.9%; IC50 (Colo205): 68.2 nM
COc1ccc(Sc2cnc(NC(=O)CCc3ccc(C)o3)s2)cc1 [Compound 71, N-[5-(4-Methoxy-phenylsulfanyl)-thiazol-2-yl]-3-(5-methyl-furan-2-yl)-propionamide]	94.4	60.1		binding rate (%) (colchicine competitive-binding) (biotinylated tubulin): 86.0%
Cc1ccc(CCC(=O)Nc2ccc(-n3ccnc3)cn2)o1 [Compound 77, N-(5-Imidazol-1-yl-pyridin-2-yl)-3-(5-methyl-furan-2-yl)-propionamide]	87.3	60.8	99.8	
O=C(CCc1ccccc1)Nc1ccc(-n2ccc3ccccc32)cn1 [Compound 79, N-(5-Indol-1-yl-pyridin-2-yl)-3-phenyl-propionamide]	73.7	53.2	90.0	
COc1ccc(Sc2ccc(NC(=O)CCc3ccc(C)o3)nc2)cc1 [Compound 83, N-[5-(4-Methoxy-phenylsulfanyl)-pyridin-2-yl]-3-(5-methyl-furan-2-yl)-propionamide]	95.2	64.7	91.9	
COc1ccc(Sc2ccc(NC(=O)CCc3ccccc3)nc2)cc1 [Compound 84, N-[5-(4-Methoxy-phenylsulfanyl)-pyridin-2-yl]-3-phenyl-propionamide]	94.7	50.3	88.0	
Cc1ccc(CCC(=O)Nc2ccc(SCc3ccccc3)cn2)o1 [Compound 85, N-(5-Benzylsulfanyl-pyridin-2-yl)-3-(5-methyl-furan-2-yl)-propionamide]	76.8	54.0	92.6	
Cc1ccc(CCC(=O)Nc2ncc(-c3ccccc3)cn2)o1 [Compound 92, 3-(5-Methyl-furan-2-yl)-N-(5-phenyl-pyrimidin-2-yl)-propionamide]	97.1	74.0	94.7	
O=C(CCc1ccccc1)Nc1ncc(-c2ccccc2)cn1 [Compound 94, 3-Phenyl-N-(5-phenyl-pyrimidin-2-yl)-propionamide]	97.4	55.2	82.9	
O=C(CCc1ccccc1)Nc1ncc(-c2ccc(F)cc2)cn1 [Compound 99, N-[5-(4-Fluoro-phenyl)-pyrimidin-2-yl]-3-phenyl-propionamide]	95.8	55.8	78.3	
COc1cccc(-c2cnc(NC(=O)CCc3ccc(C)o3)nc2)c1OC [Compound 100, N-[5-(2,3-Dimethoxy-phenyl)-pyrimidin-2-yl]-3-(5-methyl-furan-2-yl)-propionamide]	97.8	84.3	83.4	
COc1cccc(-c2cnc(NC(=O)CCc3ccccc3)nc2)c1OC [Compound 102, N-[5-(2,3-Dimethoxy-phenyl)-pyrimidin-2-yl]-3-phenyl-propionamide]	94.5	58.6	59.2	
Cc1ccc(CCC(=O)Nc2ncc(-c3ccc(F)cc3)cn2)o1 [Compound 105, N-[5-(4-Fluoro-phenyl)-pyrimidin-2-yl]-3-(5-methyl-furan-2-yl)-propionamide]	96.7	72.2	99.3	
Cc1ccc(CCC(=O)Nc2ncc(-c3ccc(N(C)C)cc3)cn2)o1 [Compound 106, N-[5-(4-Dimethylamino-phenyl)-pyrimidin-2-yl]-3-(5-methyl-furan-2-yl)-propionamide]	84.6	69.3	70.1	
Cc1ccc(CCC(=O)Nc2ccc(-c3ccccc3)cn2)o1 [Compound 111, 3-(5-Methyl-furan-2-yl)-N-(5-phenyl-pyridin-2-yl)-propionamide]	65.1	72.7	96.4	
Cc1ccc(CCC(=O)Nc2ccc(-c3ccc(F)cc3)cn2)o1 [Compound 112, N-[5-(4-Fluoro-phenyl)-pyridin-2-yl]-3-(5-methyl-furan-2-yl)-propionamide]	96.2	76.9	87.8	
Cc1ccc(CCC(=O)Nc2ncc(-c3ccccc3)cc2C)o1 [Compound 118, 3-(5-Methyl-furan-2-yl)-N-(3-methyl-5-phenyl-pyridin-2-yl)-propionamide]	93	81.4	99.7	
Cc1ccc(CCC(=O)Nc2ncc(-c3ccc(N(C)C)cc3)cc2C)o1 [Compound 120, N-[5-(4-Dimethylamino-phenyl)-3-methyl-pyridin-2-yl]-3-(5-methyl-furan-2-yl)-propionamide]	85.9	51.8	97.5	
Cc1ccc(CCC(=O)Nc2ccc(Br)cn2)o1 [Compound 123, N-(5-Bromo-pyridin-2-yl)-3-(5-methyl-furan-2-yl)-propionamide]	95.8	85.6	78.4	
Cc1ccc(CCC(=O)Nc2ncc(Br)cc2C)o1 [Compound 124, N-(5-Bromo-3-methyl-pyridin-2-yl)-3-(5-methyl-furan-2-yl)-propionamide]	93.3	84.9	74.8	
